# Source: patent publication US20260374754A1, “N-((ISOQUINOLIN-6-YL)METHYL)-1H-PYRAZOLE-4-CARBOXAMIDE DERIVATIVES AS PLASMA KALLIKREIN INHIBITORS FOR THE TREATMENT OF HEREDITARY ANGIODEMA” (Takeda Pharmaceutical Company Limited, priority 2022, published 2026)
# Molecular target: human activated kallikrein enzyme (Homo sapiens, UniProt P03952)
# Experiment: Inhibition of human activated plasma kallikrein, fluorogenic PFR-AMC substrate, 500 pM enzyme format
# Type: biochemical
# Details: 500 pM activated kallikrein; 300 μM PFR-AMC; 30 min preincubation; 10 min room temperature; pH 7.5; read-out: Primary Dose Response Assay: Average EC50
# Outline: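 Using fluorogenic PFR-AMC at 300 μM, cleavage by 500 pM human activated kallikrein ran 10 min at room temperature, read at 460 nm emission (380 nm excitation). Enzyme and compounds were first preincubated 30 min in 20 mM Tris pH 7.5, 150 mM NaCl, 1 mM EDTA, 0.1% PEG-400, 0.1% Triton X-100.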
# Sequence of human activated kallikrein enzyme (P03952 391-638 limits assumed): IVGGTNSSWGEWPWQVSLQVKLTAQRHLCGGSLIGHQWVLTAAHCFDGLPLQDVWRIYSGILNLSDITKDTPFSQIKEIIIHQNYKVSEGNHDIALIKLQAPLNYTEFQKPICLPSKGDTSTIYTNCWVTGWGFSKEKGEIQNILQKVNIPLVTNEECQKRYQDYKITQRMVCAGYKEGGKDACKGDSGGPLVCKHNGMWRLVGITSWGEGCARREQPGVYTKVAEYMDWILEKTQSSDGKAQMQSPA
# Sequence of human activated kallikrein enzyme (P03952 20-390 partner limits assumed): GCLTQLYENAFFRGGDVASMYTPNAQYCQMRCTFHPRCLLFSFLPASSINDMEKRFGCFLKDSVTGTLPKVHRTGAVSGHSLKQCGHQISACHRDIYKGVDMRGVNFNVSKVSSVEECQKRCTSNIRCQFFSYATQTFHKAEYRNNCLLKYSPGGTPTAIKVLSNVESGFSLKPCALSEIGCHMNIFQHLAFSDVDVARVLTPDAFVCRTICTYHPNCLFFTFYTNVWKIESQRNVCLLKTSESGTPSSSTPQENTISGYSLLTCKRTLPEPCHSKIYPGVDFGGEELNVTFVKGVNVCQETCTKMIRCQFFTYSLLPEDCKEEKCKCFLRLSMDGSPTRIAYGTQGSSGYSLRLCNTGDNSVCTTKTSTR
row,SMILES,EC50 [nM]
1,"Cc1cc2c(N)nccc2c(C)c1CNC(=O)c1cnn([C@H](C)c2ccccc2)c1 [Example 127, (R)-N-((1-amino-5,7-dimethylisoquinolin-6-yl)methyl)-1-(1-phenylethyl)-1H-pyrazole-4-carboxamide]",100 to 1000
2,"Cc1ccc2nc(Cn3cc(C(=O)N(C)Cc4c(C)cc5c(N)nccc5c4C)cn3)cn2c1 [Example 128, N-((1-amino-5,7-dimethylisoquinolin-6-yl)methyl)-N-methyl-1-((6-methylimidazo[1,2-a]pyridin-2-yl)methyl)-1H-pyrazole-4-carboxamide]",10 to 100
3,"Cc1cc2c(N)nccc2c(C)c1CNC(=O)c1cnn(Cc2ccc(CC(=O)O)cc2)c1 [Example 131, 2-(4-((4-(((1-amino-5,7-dimethylisoquinolin-6-yl)methyl)carbamoyl)-1H-pyrazol-1-yl)methyl)phenyl)acetic acid]",100 to 1000
4,"CCOC(=O)Nc1nccc2c(C)c(CNC(=O)c3cnn(Cc4ccc5ncc(Cl)cc5c4)c3)c(C)cc12 [Example 132, ethyl (6-((1-((3-chloroquinolin-6-yl)methyl)-1H-pyrazole-4-carboxamido)methyl)-5,7-dimethylisoquinolin-1-yl)carbamate]",10 to 100
5,"CC(=O)Nc1nccc2c(C)c(CNC(=O)c3cnn(Cc4ccc5ncc(Cl)cc5c4)c3)c(C)cc12 [Example 133, N-((1-acetamido-5,7-dimethylisoquinolin-6-yl)methyl)-1-((3-chloroquinolin-6-yl)methyl)-1H-pyrazole-4-carboxamide]",10 to 100

# Other lines, results leading:
row,EC50 [nM],SMILES
1,< 1,"Cc1cc2c(N)nccc2c(C)c1CNC(=O)c1cnn(Cc2cc3cc(C4CC4)ccn3n2)c1 [Example 121, N-((1-amino-5,7-dimethylisoquinolin-6-yl)methyl)-1-((5-cyclopropylpyrazolo[1,5-a]pyridin-2-yl)methyl)-1H-pyrazole-4-carboxamide]"
2,< 1,"Cc1cc2c(N)nccc2c(C)c1CNC(=O)c1cnn(Cc2ccc(C3(C(=O)N4CCCC4)CC3)cc2)c1 [Example 122, N-((1-amino-5,7-dimethylisoquinolin-6-yl)methyl)-1-(4-(1-(pyrrolidine-1-carbonyl)cyclopropyl)benzyl)-1H-pyrazole-4-carboxamide]"
3,< 1,"C=Cc1cnc2ccc(Cn3cc(C(=O)NCc4c(C)cc5c(N)nccc5c4C)cn3)cc2c1 [Example 123, N-((1-amino-5,7-dimethylisoquinolin-6-yl)methyl)-1-((3-vinylquinolin-6-yl)methyl)-1H-pyrazole-4-carboxamide]"
4,< 1,"CCc1cnc2ccc(Cn3cc(C(=O)NCc4c(C)cc5c(N)nccc5c4C)cn3)cc2c1 [Example 124, N-((1-amino-5,7-dimethylisoquinolin-6-yl)methyl)-1-((3-ethylquinolin-6-yl)methyl)-1H-pyrazole-4-carboxamide]"
5,< 1,"Cc1cc2c(N)nccc2c(C)c1CNC(=O)c1cnn(Cc2ccc3c(-n4ccccc4=O)cccc3c2)c1 [Example 125, N-((1-amino-5,7-dimethylisoquinolin-6-yl)methyl)-1-((5-(2-oxopyridin-1(2H)-yl)naphthalen-2-yl)methyl)-1H-pyrazole-4-carboxamide]"
6,10 to 100,"COc1ccc2nc(Cn3cc(C(=O)NCc4c(C)cc5c(N)nccc5c4C)cn3)ncc2c1 [Example 126, N-((1-amino-5,7-dimethylisoquinolin-6-yl)methyl)-1-((6-methoxyquinazolin-2-yl)methyl)-1H-pyrazole-4-carboxamide]"
7,1 to 10,"Cc1ccc2nc(C(C(=O)O)n3cc(C(=O)NCc4c(C)cc5c(N)nccc5c4C)cn3)cn2c1 (stereo not shown) [Example 129, 2-(4-(((1-amino-5,7-dimethylisoquinolin-6-yl)methyl)carbamoyl)-1H-pyrazol-1-yl)-2-(6-methylimidazo[1,2-a]pyridin-2-yl)acetic acid]"
8,< 1,"Cc1ccc2nc(C(CO)n3cc(C(=O)NCc4c(C)cc5c(N)nccc5c4C)cn3)cn2c1 (stereo not shown) [Example 130, N-((1-amino-5,7-dimethylisoquinolin-6-yl)methyl)-1-(2-hydroxy-1-(6-methylimidazo[1,2-a]pyridin-2-yl)ethyl)-1H-pyrazole-4-carboxamide]"
